# Measurements taken from US20210154472A1, “ELECTRICALLY RESPONSIVE, NANOPATTERNED SURFACE FOR TRIGGERED INTRACELLULAR DELIVERY OF BIOLOGICALLY ACTIVE MOLECULES” (Yissum Research Development Company of the Hebrew …, priority 2019, published 2021).
# System: NIH3T3 fibroblast cells
# Assay: Dox internalization in cells incubated in Dox solution (FIG. 7)
# Format: cell-based, mice
# Details: cells incubated 24 and 36 h in 17 μM Dox solution
# Experimental: FIGS. 7A-D provide (A,B) Overlaid optical microscopy and fluorescence images (λex=481 nm) showing extent of Dox internalization in NIH3T3 fibroblast cells after 24 and 36 h incubation in 17 μM Dox solution (for comparison, the Dox concentration that was released from 1-cm^2 nano-patterned PEM to 1-mL solution was ˜14 μM as shown in FIG. 4F). Cells were cultured for 2 days prior to incubation.
smiles,measurement,value
"COc1cccc2c1C(=O)c1c(O)c3c(c(O)c1C2=O)C[C@@](O)(C(=O)CO)C[C@@H]3O[C@H]1C[C@H](N)[C@H](O)[C@H](C)O1 [Dox, doxorubicin]","time for the drug to penetrate the cell membrane, versus release from PEM",much longer time was needed
